The source of these data is ChEMBL document CHEMBL5724696, “Autophagy assay results for EUbOPEN Chemogenomics Library” (2024).

Molecules are shown by their SMILES.

The subject of assay [1] is U2OS. Nature of the assay: (§1) Here: values are normalized to the negative (DMSO; defined as 0% autophagy induction) and positive (250nM Torin1; mTOR inhibitor; defined as maximal inducer of autophagy = 100%) control compounds and represented as % of autophagy induction. […] The impact of autophagy induction on cells is complex and depends on the affected target. As such, the magnitude of a phenotype may not be equally mirrored in the %-value of autophagy induction and vice versa. The dynamics of the induction may indicate the mode of activation: e.g. activation via phosphorylation or a signaling cascade may occur fast, while activation via transcription factors may take considerably longer. […] Of note, treatment concentrations may be sub-optimal for specific compounds, leading to false negative annotations. Type of assay: functional, Homo sapiens. The conditions noted are these: Culturing Media DMEM, 1 % Penicillin/Streptomycin, 10% Fetal bovin serum Add-On: No, Screening Media Control DMEM, Screening Media Samples DMEM.

For assay [2], the system named is U2OS. Described as §1. Format: functional, Homo sapiens. The note with it: Culturing Media DMEM, 1 % Penicillin/Streptomycin, 10% Fetal bovin serum Add-On: No, Screening Media Control DMEM, Screening Media Samples DMEM. This is another data set of the same source.
Where [3] appears, read: Compound Concentration 0.5 uM, Timepoint 12 hours.
Where [4] appears, read: Compound Concentration 0.5 uM, Timepoint 24 hours.
Setting [5] is: Compound Concentration 0.5 uM, Timepoint 36 hours.
[6] abbreviates: Compound Concentration 0.5 uM, Timepoint 60 hours.
[7] abbreviates: Compound Concentration 2 uM, Timepoint 12 hours.
The mark [8] stands for this setting: Compound Concentration 2 uM, Timepoint 24 hours.
Where [9] appears, read: Compound Concentration 2 uM, Timepoint 36 hours.
Setting [10] is: Compound Concentration 2 uM, Timepoint 60 hours.
[11] abbreviates: Compound Concentration 10 uM, Timepoint 12 hours.
Setting [12] is: Compound Concentration 10 uM, Timepoint 24 hours.
[13] abbreviates: Compound Concentration 10 uM, Timepoint 36 hours.
[14] abbreviates: Compound Concentration 10 uM, Timepoint 60 hours.

Consider `Cc1cc(NC(=O)Nc2ccc(N(C)C)cc2)c2cc(F)cc(F)c2n1`, for which the autophagy induction in the assay with U2OS [1] (setting [3]) was -2.687%; in the assay with U2OS [1] (setting [4]), -3.664%; in the assay with U2OS [1] (setting [5]), -3.669%; with U2OS [1] (setting [6]), 114.219%; in the assay with U2OS [1] (setting [7]), -0.9187%; with U2OS [1] (setting [8]), -2.555%. The autophagy induction in the assay on U2OS [1] (setting [9]) was -1.904%; in the assay on U2OS [1] (setting [10]), 114.2%; in the assay on U2OS [1] (setting [11]), 1.036%; in the assay on U2OS [1] (setting [12]), -2.2709%; in the assay on U2OS [1] (setting [13]), 0.4658%; in the assay with U2OS [1] (setting [14]), 113.441%. The autophagy induction is reported as -3.035% in the assay with U2OS [2] (setting [3]); -2.6114% in the assay with U2OS [2] (setting [4]); -4.581% in the assay on U2OS [2] (setting [5]); -2.138% with U2OS [2] (setting [6]); -10.8002% in the assay with U2OS [2] (setting [7]); -10.6502% in the assay on U2OS [2] (setting [8]). In addition, the autophagy induction in the assay on U2OS [2] (setting [9]) is -6.099%; in the assay on U2OS [2] (setting [10]) it was -2.686%; in the assay on U2OS [2] (setting [11]), 2.643%; in the assay with U2OS [2] (setting [12]), 9.654%; with U2OS [2] (setting [13]), 13.8869%; in the assay on U2OS [2] (setting [14]), 31.5866%.

On to `COc1ccc(Br)cc1S(=O)(=O)NC(=O)/C=C/c1ccccc1Cc1ccc2ccccc2c1`, for which the autophagy induction in the assay with U2OS [1] (setting [3]) is 8.106%; with U2OS [1] (setting [4]), 0.9964%; with U2OS [1] (setting [5]) it was -0.06695%; with U2OS [1] (setting [6]), 114.397%; with U2OS [1] (setting [7]), -1.7757%; in the assay on U2OS [1] (setting [8]) it was -1.309%. Also, the autophagy induction with U2OS [1] (setting [9]) was -1.876%; with U2OS [1] (setting [10]) it was 114.114%; in the assay with U2OS [1] (setting [11]), -6.0177%; in the assay with U2OS [1] (setting [12]) it was -3.111%; in the assay with U2OS [1] (setting [13]) it was -1.417%; in the assay with U2OS [1] (setting [14]) it was 114.143%. Besides, the autophagy induction in the assay on U2OS [2] (setting [3]) was 10.8816%; in the assay with U2OS [2] (setting [4]), 4.975%; in the assay on U2OS [2] (setting [5]) it was 5.043%; in the assay on U2OS [2] (setting [6]), 1.1971%; with U2OS [2] (setting [7]), -3.861%; in the assay on U2OS [2] (setting [8]), -4.459%. For the same compound, the autophagy induction in the assay with U2OS [2] (setting [9]) is reported as -4.477%; in the assay on U2OS [2] (setting [10]), -3.627%; in the assay with U2OS [2] (setting [11]), 11.1214%; with U2OS [2] (setting [12]), -0.228%; in the assay with U2OS [2] (setting [13]), 3.111%; with U2OS [2] (setting [14]), -1.844%.

In the case of `O=C(O)CC/C=C\C[C@@H]1CO[C@H](c2ccccc2Cl)O[C@@H]1c1ccccc1O`, the autophagy induction is on record as -2.932% with U2OS [1] (setting [3]); -1.885% in the assay on U2OS [1] (setting [4]); -1.616% with U2OS [1] (setting [5]); 114.317% in the assay with U2OS [1] (setting [6]); -0.3574% in the assay with U2OS [1] (setting [7]); -1.612% in the assay on U2OS [1] (setting [8]). Besides, the autophagy induction with U2OS [1] (setting [9]) is given as -1.86%; in the assay on U2OS [1] (setting [10]) it was 114.217%; in the assay on U2OS [1] (setting [11]) it was -0.147%; in the assay with U2OS [1] (setting [12]), -2.085%; in the assay on U2OS [1] (setting [13]) it was -2.519%; in the assay with U2OS [1] (setting [14]), 114.255%. Besides, the autophagy induction in the assay on U2OS [2] (setting [3]) is recorded as -1.049%; in the assay with U2OS [2] (setting [4]), 2.549%; in the assay on U2OS [2] (setting [5]) it was 1.3825%; with U2OS [2] (setting [6]), -3.206%; in the assay with U2OS [2] (setting [7]) it was -3.826%; in the assay on U2OS [2] (setting [8]), -5.258%. Besides, the autophagy induction in the assay on U2OS [2] (setting [9]) is 1.68%; in the assay on U2OS [2] (setting [10]), -8.886%; in the assay on U2OS [2] (setting [11]), 0.2701%; with U2OS [2] (setting [12]) it was -2.3073%; in the assay with U2OS [2] (setting [13]) it was -0.4123%; in the assay with U2OS [2] (setting [14]), -4.081%.

Consider `Cc1cc([C@@H](C)Nc2cccc(-c3cc(C)c(C(=O)N[C@@H](C)C(=O)O)c(C)c3)c2)ccc1Cl`, for which the autophagy induction with U2OS [1] (setting [3]) is listed as -1.358%; in the assay on U2OS [1] (setting [4]), -0.4353%; in the assay with U2OS [1] (setting [5]), -1.357%; with U2OS [1] (setting [6]) it was 114.287%; with U2OS [1] (setting [7]), 0.7384%; with U2OS [1] (setting [8]), 3.004%. Besides, the autophagy induction was -0.1787% with U2OS [1] (setting [9]); 114.309% in the assay with U2OS [1] (setting [10]); 25.7636% in the assay with U2OS [1] (setting [11]); 8.275% in the assay with U2OS [1] (setting [12]); 1.804% in the assay with U2OS [1] (setting [13]); 114.446% in the assay on U2OS [1] (setting [14]). For the same compound, the autophagy induction in the assay on U2OS [2] (setting [3]) is reported as -5.116%; with U2OS [2] (setting [4]), -3.567%; in the assay on U2OS [2] (setting [5]) it was -5.902%; in the assay with U2OS [2] (setting [6]), -1.838%; with U2OS [2] (setting [7]), -9.884%; in the assay with U2OS [2] (setting [8]), -6.925%. Besides, the autophagy induction in the assay with U2OS [2] (setting [9]) is reported as -1.645%; in the assay on U2OS [2] (setting [10]) it was 5.389%; with U2OS [2] (setting [11]), 8.557%; in the assay on U2OS [2] (setting [12]), 0.1878%; with U2OS [2] (setting [13]), -1.416%; in the assay with U2OS [2] (setting [14]), -9.482%.

As for `Cc1nc(C#Cc2ccnc(Cl)c2)c(C)n1-c1ccc(OC(F)(F)F)cc1`, the autophagy induction in the assay with U2OS [1] (setting [3]) was 6.745%; in the assay with U2OS [1] (setting [4]), 0.06808%; with U2OS [1] (setting [5]) it was -1.509%; with U2OS [1] (setting [6]), 114.498%; with U2OS [1] (setting [7]), 7.139%; in the assay with U2OS [1] (setting [8]) it was -0.173%. The autophagy induction in the assay with U2OS [1] (setting [9]) is reported as -1.142%; in the assay with U2OS [1] (setting [10]), 114.204%; in the assay with U2OS [1] (setting [11]) it was 1.1344%; in the assay with U2OS [1] (setting [12]), 2.694%; with U2OS [1] (setting [13]), 0.08816%; in the assay on U2OS [1] (setting [14]), 114.429%. Besides, the autophagy induction in the assay on U2OS [2] (setting [3]) is given as 6.456%; in the assay with U2OS [2] (setting [4]), 5.383%; in the assay on U2OS [2] (setting [5]) it was 5.336%; with U2OS [2] (setting [6]) it was 1.571%; in the assay with U2OS [2] (setting [7]), -2.91%; in the assay on U2OS [2] (setting [8]), 2.407%. Further, the autophagy induction with U2OS [2] (setting [9]) is given as -0.6644%; in the assay on U2OS [2] (setting [10]), -12.3758%; in the assay with U2OS [2] (setting [11]) it was 2.059%; in the assay on U2OS [2] (setting [12]), 11.3882%; in the assay on U2OS [2] (setting [13]), 11.4393%; in the assay with U2OS [2] (setting [14]), 13.7118%.

With `COc1cccc(-c2c(C)n(Cc3c(F)cccc3C(F)(F)F)c(=O)n(C[C@H](NCCCC(=O)[O-])c3ccccc3)c2=O)c1F.[Na+]` [ELAGOLIX SODIUM], the autophagy induction was -3.352% in the assay on U2OS [1] (setting [3]); -3.1643% with U2OS [1] (setting [4]); -0.7483% in the assay with U2OS [1] (setting [5]); -1111.24% in the assay on U2OS [1] (setting [6]); -6.63% in the assay with U2OS [1] (setting [7]); -5.163% with U2OS [1] (setting [8]). Also, the autophagy induction in the assay with U2OS [1] (setting [9]) is on record as -4.643%; in the assay on U2OS [1] (setting [10]), 114.391%; with U2OS [1] (setting [11]), -2.89%; in the assay on U2OS [1] (setting [12]), -3.023%; in the assay on U2OS [1] (setting [13]), -0.9947%; in the assay with U2OS [1] (setting [14]) it was 114.218%. Also, the autophagy induction in the assay on U2OS [2] (setting [3]) is reported as 4.133%; with U2OS [2] (setting [4]) it was 4.438%; with U2OS [2] (setting [5]), 6.469%; with U2OS [2] (setting [6]), -7.02%; in the assay on U2OS [2] (setting [7]), 12.3647%; in the assay on U2OS [2] (setting [8]) it was 8.125%. For the same compound, the autophagy induction with U2OS [2] (setting [9]) is recorded as 1.282%; in the assay with U2OS [2] (setting [10]), -8.542%; in the assay with U2OS [2] (setting [11]), -6.525%; in the assay with U2OS [2] (setting [12]), -4.485%; in the assay on U2OS [2] (setting [13]), -1.897%; with U2OS [2] (setting [14]), -2.895%.
